Laboratory results published in BindingDB's records for doi:10.1021/acs.jmedchem.7b00843 (Wuxi Apptec, 2017).

Assay: Inhibition of DLK in CD-1 mouse DRG neuron assessed as axonal protection pre-incubated for 2 hrs before NGF deprivation for 16 to 20 hrs by Campenot chamber based fluorescence assay

Work on `Nc1ncc(-c2cc([C@H]3[C@@H]4CN(C5COC5)C[C@@H]43)n(CC3CC3)n2)cc1C(F)(F)F` yielded an EC50 of 457 nM.

Work on `CC(C)n1nc(-c2cnc(N)c(OC(F)(F)F)c2)cc1[C@H]1[C@@H]2CN(C3COC3)C[C@@H]21` yielded an EC50 of 574 nM.
